Test results published in PMC8274846, “Biogenic nanoporous silicon carrier improves the efficacy of buparvaquone against resistant visceral leishmaniasis” (PLoS Neglected Tropical Diseases, 2021).

Key:
[1] = test system: axenic L.donovani amastigotes, wild-type AG83; assay: Antileishmanial activity against axenic amastigotes, wild-type AG83; type: cell-based
Description: (§1) L. donovani AG83 (MHOM/IN/83/AG83) and GE1 (MHOM/IN/80/GE1F8R) promastigotes were routinely grown in medium 199 supplemented with 10% heat-inactivated fetal bovine serum, 2 mM L-glutamine, 20 mM HEPES, 100 U/mL penicillin, and 100 μg/mL streptomycin at 25°C. L. donovani amastigote forms were grown and maintained as described previously. Axenic amastigote forms were derived from promastigote forms by culturing them in MMA/20 (medium for axenic amastigote) at pH 5.5 [22]. Axenically grown amastigotes were maintained by sub-culture of 10^5 parasites/ml repeated every fifth day under experimental conditions of 37°C temperature and 5% CO2 environment.
(§2) The antileishmanial activity of the drug specimens (BPQ+NP, BPQ, SSG, AmB, PMM, and MF) against the axenic amastigotes were evaluated based on the IC50 value, which is the concentration of the specimen required to kill 50% of the parasites. The parasites were first seeded into 96-well plates at a density of 1x10^5 amastigotes/well in 200 μL medium. Then, 10 μL of the drug candidates at various concentrations were added and the final volume was adjusted to […] medium. The number of amastigotes in the wells treated with each specimen were compared to those in the untreated control wells.
(§3) Microscopic examinations were performed in duplicates with various concentrations of pure drugs or buparvaquone-loaded nanoparticles and also for control wells. The amastigotes cells were counted for all cases using a hemocytometer. The mean of the control wells was considered as 100% survival. The counts in the treated wells at various concentrations were converted into percentages. Giemsa-stained slides of the macrophages infected with amastigotes were observed under a light microscope. Then the numbers of amastigotes and infected macrophages per 100 cells were counted for each slide. The percentage (%) of inhibition was calculated by using the equation %ofinhibition=C−T/C×100, (2) where C is the number of amastigotes/infected macrophages per 100 cells in the control well and T is the number of amastigotes/infected macrophages per 100 cells in the drug-treated well.
(§4) Origin version 6.1 software was used to calculate IC50 and CC50 values by plotting a graph of the percentage of inhibition at various concentrations of all the observations.

[2] = test system: axenic L.donovani amastigotes, AG83-R, PMM (PMM resistant strain generated from AG83); assay: microbe, parasite or virus in culture; type: cell-based
Description: as §1
(§5) SSG and PMM resistant L. donovani amastigotes were generated by using the methods described previously. […] The cultures were stabilized for three subcultures. Then, the drug concentration was increased until the cell population decreased approximately to 20% for each batch. Finally, when 90% cell population of the initial count was reduced, the phenotype generated was plated on medium 199 agar plates containing the same drug concentration, and a single colony was picked for culture in medium 199 liquid media at the same drug concentration. The cultured promastigotes are converted into amastigotes as described above. Drug pressure was withdrawn, and stability was checked at one, two, and four months. SSG and PMM resistant phenotype clones were labeled as AG83-R,SSG and AG83-R, PMM, respectively.
as §2, §3, §4

[3] = test system: axenic L.donovani amastigotes, AG83-R, SSG (SSG resistant strain generated from AG83); assay: microbe, parasite or virus in culture; type: cell-based
Description: as §1, §5, §2, §3, §4

[4] = Cytotoxicity studies (CC50) on peritoneal macrophages; type: cell-based, BALB/c mice; conditions: BALB/c, mouse, resident peritoneal macrophages, 48 h exposure, mean ± σ, n = 3
Description: (§6) Resident peritoneal macrophages were isolated from BALB/c mice. For the isolation, 1.5 mL of sterile thioglycolate medium was injected into the peritoneal cavity to induce non-infectious inflammation. Animals were sacrificed after 5 days, and peritoneal exudates were harvested by intraperitoneal lavage. Cold RPMI (6 mL) was injected into the peritoneal cavity. After 10 min, the injected fluid was withdrawn by the same syringe. From each animal, approximately 3-4 mL of medium was recovered. After centrifugation at 200 g for 15 min, macrophages were collected. […] The cytotoxicity of the drug specimen was evaluated by the CC50 value, which is the concentration required to kill 50% of the host cell population. Macrophages were first isolated from peritoneal lavage as described above. The cells were seeded into 96-well plates at 1x10^6 cells/mL in 200 μL of RPMI-1640 supplemented with 10% FCS, 20 mM L-glutamine, 16 mM NaHCO3, penicillin (50 U/mL) and streptomycin (50 μg/ mL) at 37°C in 5% CO2 for 4 h for adherence. To remove the non-adherent cells, each plate was washed two times with phosphate buffer saline (pH 7.2). […] Microscopic examinations were performed in duplicates with various concentrations of pure drugs or buparvaquone-loaded nanoparticles and also for control wells. The amastigotes cells were counted for all cases using a hemocytometer. The mean of the control wells was considered as 100% survival. The counts in the treated wells at various concentrations were converted into percentages. Giemsa-stained slides of the macrophages infected with amastigotes were observed under a light microscope. Then the numbers of amastigotes and infected macrophages per 100 cells were counted for each slide. The percentage (%) of inhibition was calculated by using the equation %[…]×100, (2) where C is the number of amastigotes/infected macrophages per 100 cells in the control well and T is the number of amastigotes/infected macrophages per 100 cells in the drug-treated well.

[5] = test system: resident peritoneal macrophages; assay: as above; type: cell-based, BALB/c mice; conditions: 48 h exposure, mean ± σ, n = 3, read-out: CC50
Description: as §6

[6] = test system: wild-type AG83 L. donovani amastigotes in spleen; assay: Leishman-Donovan Unit (LDU) assay in infected mice; type: in vivo, BALB/c mice
Description: Spleen smears were stained with Giemsa to confirm infection. The infected animals were divided into three groups consisting 4-5 animals per group. The groups were classified as the infected control group, BPQ treated group and BPQ+NP treated group. […] The infected control group was injected an equal volume of PBS during the entire dosing period. […] After that spleen impression smears were prepared on glass slides and stained with Giemsa to analyze infected visceral organ (spleen) microscopically. The parasite burdens were determined by evaluating the LDU values, which were calculated by multiplying the number of amastigotes counted per 500 nuclei with the spleen weight in mg.

[7] = IC50 against drug resistant strain / IC50 against wild-type strain (AG83), axenic

In the case of `CC(C)(C)[C@H]1CC[C@H](CC2=C(O)C(=O)c3ccccc3C2=O)CC1` [BPQ, Buparvaquone], the IC50 ([1]; Leishmania donovani, axenic amastigotes, mean ± σ, n = 4) is reported as 3.4 ± 0.3 µM, the “Fold higher axenic IC50 of pure BPQ than BPQ+NP” value (“Fold higher axenic IC50” for short) ([1]; wild-type AG83) is reported as 3 fold and the “Fold higher axenic IC50” value ([2]; AG83-R, PMM) is reported as 7 fold. For the same compound, the “Resistance index (RI), AG83-R, PMM” value [2, 7] was 2.1 ± 1.5, the IC50 ([2]; Leishmania donovani, read-out: Axenic IC50, AG83-R, PMM) was 7.1 ± 0.8 µM and the “Fold higher axenic IC50” value ([3]; AG83-R, SSG) was 8 fold. The “Resistance index (RI), AG83-R, SSG” value [3, 7] was 2.4 ± 1.2, the IC50 ([3]; Leishmania donovani, read-out: Axenic IC50, AG83-R, SSG) was 8.1 ± 0.8 µM and the CC50 at 48 h [4] was greater than 300 µM. The CC50 [5] was 330 ± 30 µM, the “Fold reduction of amastigote burden in spleen compared with the control group” value ([6]; 1 mg/kg i.p. for 5 consecutive days) was 20 fold and the Spleen wt. ([6]; infected BALB/c mice, 1 mg/kg i.p. for 5 consecutive days, day 7 post-treatment, n = 5) was 100 ± 10 mg. The “Suppression / inhibition of parasite burden in vivo (summary statement)” value ([6]; spleen of infected mice, intraperitoneal, corresponding doses) was 50%, the “LDU (Leishman Donovan Unit = number of amastigotes per 500 nuclei × spleen weight in mg)” value ([6]; spleen, 1 mg/kg i.p. for 5 consecutive days) was 2 ± 1 × 10^4 and the “Amastigotes per 500 nuclei” value ([6]; spleen, 1 mg/kg i.p. for 5 consecutive days, day 7 post-treatment) was 200 ± 20.
